{"source": "patent US20010016952A1", "about": "“Pathogenesis of cardiomyopathy” (priority 1999, published 2001)", "assay_type_in_all_cases": "in vivo, mouse", "key": {"[1]": {"tested_on": "Sgcd-null mice", "experiment": "Systemic blood pressure after Nicorandil", "conditions": "at the dose given"}, "[2]": {"tested_on": "Sgcd-null mice", "experiment": "Treadmill exercise of Sgcd-null mice with Evans blue dye uptake and H&E histopathology of cardiac muscle", "experimental": "Treadmill exercise is one of the primary methods used clinically to induce cardiovascular stress in human and animals (Fewell et al., Am. J. Physiol. 273: H1595-H1605 (1997)) and is used to detect cardiovascular abnormalities (e.g. coronary artery dysfunction) that may not be readily apparent at rest. […] All mice were injected with Evans blue dye (EBD) 8 hr before the exercise. EBD is a small molecular mass tracer that tightly complexes with serum albumin. Normally, this is a membrane impermeable molecule, but if the sarcolemma integrity is compromised this dye readily penetrates into the cytoplasm of muscle fibers (Matsuda et al., J. Biochem. (Tokyo) 118: 959-964 (1995); Straub et al., J. Cell Biol. 139: 375-385 (1997)). EBD uptake as well as routine histopathology was examined in the cardiac muscle.\nTreadmill exercise. […] Animals were exercised at 12-17 m/min for about 10 min and for 25-30 m/min for the remaining 50 min. If an animal became exhausted, the shock bar of this lane was turned off and the animal was allowed to rest at the back of the treadmill for a short period of time. Wild type (n=20), Sgca- (n=20) and Sgcd-null mice (n=42) were divided in approximately equal numbers of male and females. All mice were injected with Evans blue dye (0.5 mg EBD/0.05 ml PBS) intraperitoneally 8 hr before the exercise. Animals were injected with 50 μl of this solution per 10-g body weight. […] The effect of Nicorandil treatment on treadmill performance in wild type (n=6), Sgca- (n=6) and Sgcd-null mice (n=20) was studied after 3 days of intraperitoneal injection of Nicorandil at a dose of 1 mg/kg body weight twice a day. Quantification of Evans blue positive stained areas in sections of cardiac muscle from Sgca- and Sgcd-null mice (n=20, each group) was done by using the Scion image program. The percentage of positive stained areas was calculated by dividing the area of staining by the total area of the analyzed heart section."}, "[3]": {"tested_on": "wild type or Sgca-null mice", "experiment": "Treadmill exercise of wild type or Sgca-null mice after Nicorandil", "conditions": "after administration of Nicorandil", "experimental": "Treadmill exercise. […] Animals were exercised at 12-17 m/min for about 10 min and for 25-30 m/min for the remaining 50 min. If an animal became exhausted, the shock bar of this lane was turned off and the animal was allowed to rest at the back of the treadmill for a short period of time. Wild type (n=20), Sgca- (n=20) and Sgcd-null mice (n=42) were divided in approximately equal numbers of male and females. All mice were injected with Evans blue dye (0.5 mg EBD/0.05 ml PBS) intraperitoneally 8 hr before the exercise. Animals were injected with 50 μl of this solution per 10-g body weight. All surviving animals were kept alive for 36-48 hr and serial sections of cardiac muscle were studied for Evans blue uptake and for histopathological signs of necrosis by using routine H&E technique. The effect of Nicorandil treatment on treadmill performance in wild type (n=6), Sgca- (n=6) and Sgcd-null mice (n=20) was studied after 3 days of intraperitoneal injection of Nicorandil at a dose of 1 mg/kg body weight twice a day. Quantification of Evans blue positive stained areas in sections of cardiac muscle from Sgca- and Sgcd-null mice (n=20, each group) was done by using the Scion image program. The percentage of positive stained areas was calculated by dividing the area of staining by the total area of the analyzed heart section."}, "[4]": {"tested_on": "Sgcd-null mice", "experiment": "Microfil perfusion of coronary arteries", "text": "The Microfil® perfusion technique was used in vivo in order to determine whether disruption of the SG-SSPN complex in smooth muscle of coronary arteries indeed leads to vascular perfusion abnormalities. Wild type, Sgca-null and Sgcd-null mice at the age of 2-6 months were perfused, and cleared sections of the heart were visualized using trans-illumination with low-power magnification. The coronary microvessels were distributed normally and were smoothly tapered in both wild type and Sgca-null mice. […] Pre- and poststenotic dilation as an appearance of microaneurysm was frequently associated with these constrictions. Extensive areas of focal vascular lumen narrowing and a generalized sparseness of perfusion were observed. […] Quantification of vascular abnormalities in Sgcd-null mice at different ages were determined by calculating the mean numbers of abnormal vessels ±SEM in 10 nonadjacent microscopic fields at a magnification of 10×. No lesions were detected in Sgca-null and wild type mice.\nMicrofil® perfusion. In order to study coronary microvascular perfusion mice were anesthetized with Phenobarbital 75 mg/kg body weight and a bilateral sternum incision was performed to expose the left atrium. 1-1.5 ml of Microfil®, a liquid silicon rubber (Flow tech, Carver, Mass.) was perfused into the left atrium. The heart continued beating for about 1 min and after contraction stopped the heart was rapidly excised and cured on ice for about 10 min. […] Microvascular perfusion was visualized with both epi- and tans-illumination and examined under low power magnification (×10-20). the vascular irregularities in Sgcd-null mice at different ages (2, 4, and 6 months) were quantified by counting the number of abnormal individual vessel segments in 10 nonadjacent microscopic field using a low magnification (10×) and the mean number of abnormal vessels were calculated for each mouse. An average number of abnormal vessels ±SEM were then calculated for each age group. Vessels segments with more than one abnormality were only counted once."}, "[5]": {"conditions": "Sgcd-null mice after administration of Nicorandil"}}, "note": "“Also recorded” adds a separate entry of the source.", "data": [{"smiles": "O=C(NCCO[N+](=O)[O-])c1cccnc1", "note": "[Nicorandil]", "values": [{"measurement": "systemic blood pressure", "setting": "[1]", "result": "did not lower the systemic blood pressure"}, {"measurement": "EBD uptake in cardiac muscle", "setting": "[2]; 2 months old exercised Sgcd-null mice, intraperitoneal Nicorandil for 3 days prior to the exercise", "result": "No EBD uptake was observed"}, {"measurement": "development of multiple myocardial ischemic lesions", "setting": "[2]; Sgcd-null mice (n=20), treadmill exercise, Nicorandil intraperitoneal 1 mg/kg body weight twice a day for 3 days prior to exercise", "result": "prevented mortality and the development of multiple myocardial lesions; also recorded: prevent the development of multiple myocardial ischemic lesions in all Sgcd-null mice"}, {"measurement": "mortality in treadmill stressed mice", "setting": "[2]; Sgcd-null mice, Nicorandil given prior to the application of physical stress", "result": "prevented mortality"}, {"measurement": "general behavior during exercise and cardiac muscle abnormalities", "setting": "[3]", "result": "No alteration of the general behavior during exercise or any cardiac muscle abnormalities was observed"}, {"measurement": "constrictions and focal luminal narrowing of the coronary microvascular bed (perfusion studies)", "setting": "[4]; Nicorandil treated Sgcd-null mice", "result": "free of constrictions and focal luminal narrowing"}, {"measurement": "density of the vasculature (Microfil perfusion)", "setting": "[4]; [5]", "result": "overall greater density of the vasculature"}, {"measurement": "vascular constrictions of coronary arteries (Microfil perfusion)", "setting": "[4]; [5]", "result": "no evidence of vascular constrictions"}]}]}
